Measured values taken from US9034400B2, “Process for preparation of a herbal extract” (Piramal Enterprises Limited, priority 2011, dated 2015).

System: subject with uncontrolled type II diabetes / non insulin-dependent diabetes
Assay: Anecdotal studies: hypoglycemic effect, blood glucose level of diabetic subjects
Type: in vivo, human
Conditions: before capsules

## CN(C)C(=N)N=C(N)N [metformin]
Study 2: person, 61 kg, non insulin-dependent diabetes, metformin 500 mg BID
  daily blood glucose level (base level) on metformin alone: 234 mg/dL
Study 3: person, 67 kg, non insulin-dependent uncontrolled diabetic, metformin 500 mg, three tablets per day
  daily blood glucose level (base level) on metformin alone: 261 mg/dL
